Data published in ChEMBL document CHEMBL1135213, “New indene-derivatives with anti-proliferative properties” (Bioorg Med Chem Lett, 2002).
Calls of active or inactive are those of the source. No cut-off for these calls is given here.

Experiments:
MDCK [1] = assay: Anti-proliferative activity was evaluated by its ability to inhibit proliferation of MDCK-f3 (Madin-Darby canine kidney f3) cell line; na means Not active; assay type: functional, cell-based, Canis lupus familiaris
MDCK [2] = assay: Anti-proliferative activity was evaluated by its ability to inhibit proliferation of MDCK cells; na means Not active; assay type: functional, cell-based, Canis lupus familiaris
NIH3T3 [3] = assay: Anti-proliferative activity was evaluated by its ability to inhibit proliferation of murine NIH3T3 fibroblasts; na means Not active; assay type: functional, cell-based, Mus musculus
REF [4] = assay: Anti-proliferative activity was evaluated by its ability to inhibit proliferation of rat embryonic fibroblasts (REF); na means Not active; assay type: functional, cell-based
SW480 [5] = assay: Anti-proliferative activity was evaluated by its ability to inhibit proliferation of SW480 cells; na means Not active; assay type: functional, cell-based, Homo sapiens
MDCK [6] = assay: Anti-proliferative activity was evaluated by its ability to inhibit proliferation of MDCK-f3 (Madin-Darby canine kidney f3) cell line; assay type: functional, cell-based, Canis lupus familiaris
NIH3T3 [7] = assay: Anti-proliferative activity was evaluated by its ability to inhibit proliferation of murine NIH3T3 fibroblasts; assay type: functional, cell-based, Mus musculus
REF [8] = assay: Anti-proliferative activity was evaluated by its ability to inhibit proliferation of rat embryonic fibroblasts (REF); assay type: functional, cell-based
[9] = Inhibition of p21ras protein and Raf kinase in vitro using recombinant proteins; parameters: unit not given here
MDCK [10] = assay: Anti-proliferative activity was evaluated by its ability to inhibit proliferation of MDCK cells; assay type: functional, cell-based, Canis lupus familiaris
[11] = target: T1, Cyclooxygenase (Homo sapiens) (UniProt P35354+P23219); details: Ovis aries
SW480 [12] = assay: Anti-proliferative activity was evaluated by its ability to inhibit proliferation of SW480 cells; assay type: functional, cell-based, Homo sapiens
[13] = target: T1, Cyclooxygenase (Homo sapiens); assay: Half-maximal inhibition of the COX activity was measured by the direct analysis of the consumed O2 using isolated sheep seminal vesicles; na means Not active; assay type: functional; details: Ovis aries; target entry is the homologue from another species
[14] = Inhibition of p21ras protein and Raf kinase in vitro using recombinant proteins (inactive)

SMILES | IC50 (MDCK [6]; Canis lupus familiaris, MDCK) | IC50 (NIH3T3 [7]; Mus musculus, NIH3T3) | IC50 (REF [8]; Rattus norvegicus, REF) | Inhibitory activity [9] | IC50 (MDCK [10]; Canis lupus familiaris, MDCK) | Inhibitory activity [11] | IC50 (SW480 [12]; Homo sapiens, SW480) | IC50 (SW480 [12]; sw480) | IC50 (MDCK [10]; mdck) | other results
CC1=C(CC(=O)O)c2cc(F)ccc2C1=Cc1ccc(S(=O)(=O)O)o1 |  |  |  |  |  |  |  |  |  | IC50 (MDCK [1]): Not Active; IC50 (MDCK [2]): Not Active; IC50 (NIH3T3 [3]): Not Active; IC50 (REF [4]): Not Active; IC50 (SW480 [5]): Not Active
COc1ccc(C=C2C(C)=C(CC(=O)O)c3cc(F)ccc32)cc1 | 310 µM | 480 µM | 500 µM | 10 | 460 µM | 1.6 |  |  |  | IC50 (SW480 [5]): Not Active
COc1cccc(C=C2C(C)=C(CC(=O)O)c3cc(F)ccc32)c1 | 300 µM | 520 µM | 200 µM |  | 275 µM |  | 360 µM |  |  | 
CC1=C(CC(=O)O)c2cc(F)ccc2C1=Cc1ccc(C)o1 [listing 1 of 2 here] |  |  |  |  |  |  |  | 80 µM | 60 µM | IC50 (MDCK [6]; mdck): 60 µM; IC50 (NIH3T3 [7]; nih3t3): 60 µM; IC50 (REF [8]; ref): 10 µM
CC1=C(CC(=O)O)c2cc(F)ccc2C1=Cc1ccc(C)o1 [listing 2 of 2 here] |  | 100 µM | 20 µM |  |  |  |  | 380 µM | 250 µM | IC50 (MDCK [6]; mdck): 310 µM
COc1ccccc1C=C1C(C)=C(CC(=O)O)c2cc(F)ccc21 | 360 µM | 500 µM | 200 µM |  |  |  | 850 µM |  |  | 
CC1=C(CC(=O)O)c2cc(F)ccc2C1=Cc1ccc(CO)o1 [listing 1 of 3 here] | 130 µM | 450 µM | 90 µM |  |  |  |  | 310 µM | 250 µM | 
CC1=C(CC(=O)O)c2cc(F)ccc2C1=Cc1ccc(CO)o1 [listing 2 of 3 here] |  |  |  | 45 |  | 570 |  |  |  | 
CC1=C(CC(=O)O)c2cc(F)ccc2C1=Cc1ccc([S+](C)[O-])cc1 (stereo unspecified) [SULINDAC] | 320 µM | 200 µM | 100 µM |  | 300 µM |  | 800 µM |  |  | Inhibitory activity [13]: inactive; Inhibitory activity [14]: inactive
CC1=C(CC(=O)O)c2cc(F)ccc2C1=Cc1ccc(CO)o1 [listing 3 of 3 here] |  |  |  |  |  |  |  | 70 µM | 50 µM | IC50 (MDCK [6]; mdck): 120 µM; IC50 (NIH3T3 [7]; nih3t3): 490 µM; IC50 (REF [8]; ref): 80 µM
CC1=C(CC(=O)O)c2cc(F)ccc2C1=Cc1ccoc1 | 50 µM | 170 µM | 30 µM | 30 | 300 µM | 0.24 | 400 µM |  |  | 
CC1=C(CC(=O)O)c2cc(F)ccc2C1=Cc1cccs1 | 80 µM | 400 µM | 100 µM |  | 470 µM | 0.03 | 320 µM |  |  | Inhibitory activity [14]: inactive
CSc1ccc(/C=C2/C(C)=C(CC(=O)O)c3cc(F)ccc32)cc1 [SULINDAC SULFIDE] | 200 µM | 350 µM | 200 µM | 210 | 180 µM | 2.6 | 200 µM |  |  | 
